This note sets out measurements from US20250179059A1 (The Regents of the University of California, priority 2021, published 2025).

Experiment [1] concerns the target T1, human BRD4 bromodomain II (Homo sapiens, UniProt O60885).
T1 construct: human BRD4 bromodomain II [based on Genbank NM_058243, residues 349-460]; host or cells: E. coli
Nature of the experiment: Bromodomain binding assay (AlphaScreen), BRD4 BDII. The following applies: AlphaScreen assay, Table C2; read-out: BRD4 BDII IC50. The method in brief: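 E. coli-expressed N-terminal His6-tagged human BRD4 BDII (residues 349-460) or BDI (residues 44-170) was preincubated 30 min at room temperature with compound (10-point, 3-fold) in pH 7.5 HEPES buffer, 1% DMSO. Displacement of biotinylated tetra-acetylated H4 1-21 peptide was read by AlphaScreen, and IC50 came from curve fitting.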
On the technique in general: Alpha assays give light when donor and acceptor beads are brought close together.

The subject of experiment [2] is human SKM-1 acute myeloid leukemia cells. Kind of experiment: SKM-1 antiproliferation cell-based assay (ATPlite). Particulars: Homo sapiens, SKM-1, 96 h, SKM-1 antiproliferation assay, 4 days, Table C2. The method in brief:
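Log-phase cells in RPMI 1640/15% FBS were seeded at 34722 cells/mL and exposed for 4 days to nine-concentration DMSO serial dilutions in triplicate. Viability was read as ATP luminescence (ATPlite 1step), and IC50 values came from variable-slope non-linear regression.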

One may read the IC50 as the concentration needed to halve the response being measured. A word on the GI50: it is the concentration at which growth is held to half of that of the control. Read a low GI50 as greater sensitivity of the cells. On to `CC[C@@]1(O)CCN(c2cc(-c3cc(F)cc(-c4ccc(-n5ccn(C)c5=O)c(Cl)c4)c3O)ccn2)C1` [Example 820, (R)-1-(3-chloro-3′-(2-(3-ethyl-3-hydroxypyrrolidin-1-yl)pyridin-4-yl)-5′-fluoro-2′-hydroxy-[1,1′-biphenyl]-4-yl)-3-methyl-1H-imidazol-2(3H)-one], for which the IC50 in experiment [1] was in the range of 1 to 10 nM. In addition, in experiment [2], the GI50 was 0.3 to 30 nM.

In the case of `CSc1ncc(-c2cc(F)cc(-c3ccc(-n4ccn(C)c4=O)c(Cl)c3)c2O)cc1N1CCN(C(C)(C)C)CC1` [Example 821, 1-(3′-(5-(4-(tert-butyl)piperazin-1-yl)-6-(methylthio)pyridin-3-yl)-3-chloro-5′-fluoro-2′-hydroxy-[1,1′-biphenyl]-4-yl)-3-methyl-1H-imidazol-2(3H)-one], the IC50 in experiment [1] fell in the range of 1 to 10 nM. Moreover, in experiment [2], the GI50 lay within 0.3 to 30 nM.

As for `Cn1ccn(-c2ccc(-c3cc(F)cc(-c4ccnc(N5CCC(C)(N6CCCC6)C5)c4)c3O)cc2Cl)c1=O` (stereo not drawn) [Example 822, 1-(3-chloro-5′-fluoro-2′-hydroxy-3′-(2-(3′-methyl-[1,3′-bipyrrolidin]-1′-yl)pyridin-4-yl)-[1,1′-biphenyl]-4-yl)-3-methyl-1H-imidazol-2(3H)-one], the half-maximal inhibitory concentration (IC50) in experiment [1] fell in the range of 1 to 10 nM. In experiment [2], this compound gave a GI50 of 0.3 to 30 nM.

Consider `Cn1ccn(-c2ccc(-c3cc(F)cc(-c4cnc(OC(F)F)c(N5CCN(C(C)(C)C)CC5)c4)c3O)cc2Cl)c1=O` [Example 823, 1-(3′-(5-(4-(tert-butyl)piperazin-1-yl)-6-(difluoromethoxy)pyridin-3-yl)-3-chloro-5′-fluoro-2′-hydroxy-[1,1′-biphenyl]-4-yl)-3-methyl-1H-imidazol-2(3H)-one], for which the half-maximal inhibitory concentration (IC50) in experiment [1] lay within 1 to 10 nM. The GI50 in experiment [2] was in the range of 0.3 to 30 nM.

In the case of `CC(C)N1CCN(c2cc(-c3cc(F)cc(-c4ccc(-n5ccn(C)c5=O)c(Cl)c4)c3O)cnc2OC(F)F)CC1` [Example 824, 1-(3-chloro-3′-(6-(difluoromethoxy)-5-(4-isopropylpiperazin-1-yl)pyridin-3-yl)-5′-fluoro-2′-hydroxy-[1,1′-biphenyl]-4-yl)-3-methyl-1H-imidazol-2(3H)-one], in experiment [1], the IC50 was in the range of 1 to 10 nM. Also, the GI50 in experiment [2] is 0.3 to 30 nM.

Consider `Cc1ncc(-c2cc(F)cc(-c3ccc(-n4ccn(C)c4=O)c(Cl)c3)c2O)cc1N1CC[C@@](C)(O)C1` [Example 825, (R)-1-(3-chloro-5′-fluoro-2′-hydroxy-3′-(5-(3-hydroxy-3-methylpyrrolidin-1-yl)-6-methylpyridin-3-yl)-[1,1′-biphenyl]-4-yl)-3-methyl-1H-imidazol-2(3H)-one], for which the half-maximal inhibitory concentration (IC50) in experiment [1] was 0.01 to 1 nM. The compound further registered a GI50 in experiment [2] of 0.3 to 30 nM.

On to `Cn1ccn(-c2ccc(-c3cc(F)cc(-c4cnc(C(F)F)c(N5CCN(C(C)(C)C)CC5)c4)c3O)cc2Cl)c1=O` [Example 826, 1-(3′-(5-(4-(tert-butyl)piperazin-1-yl)-6-(difluoromethyl)pyridin-3-yl)-3-chloro-5′-fluoro-2′-hydroxy-[1,1′-biphenyl]-4-yl)-3-methyl-1H-imidazol-2(3H)-one], for which the IC50 in experiment [1] is 0.01 to 1 nM. In experiment [2], this compound yielded a concentration for 50% growth inhibition (GI50) of 0.3 to 30 nM.

On to `Cn1ccn(-c2ccc(-c3cc(F)cc(-c4cc(Cl)cc(N5CCN(C(C)(C)C)CC5)c4)c3O)cc2Cl)c1=O` [Example 827, 1-(3″-(4-(tert-butyl)piperazin-1-yl)-3,5″-dichloro-5′-fluoro-2′-hydroxy-[1,1′:3′,1″-terphenyl]-4-yl)-3-methyl-1H-imidazol-2(3H)-one], for which the IC50 in experiment [1] fell in the range of 0.01 to 1 nM. In experiment [2], this compound came in with a GI50 of 0.3 to 30 nM.

As to `Cc1cc(-c2cc(F)cc(-c3ccc(-n4ccn(C)c4=O)c(Cl)c3)c2O)cc(N2CCN(C(C)(C)C)CC2)c1` [Example 828, 1-(3″-(4-(tert-butyl)piperazin-1-yl)-3-chloro-5′-fluoro-2′-hydroxy-5″-methyl-[1,1′:3′,1″-terphenyl]-4-yl)-3-methyl-1H-imidazol-2(3H)-one], the IC50 in experiment [1] lay within 0.01 to 1 nM. Further, the GI50 in experiment [2] is 0.3 to 30 nM.
